From patent publication US12336994B2, “Alpha polyglutamated tetrahydrofolates and uses thereof” (L.E.A.F. HOLDINGS GROUP LLC, priority 2018, dated 2025)

Assays:
[1] = test system: NCI H2342 non-small cell lung cancer (NSCLC), adenocarcinoma subtype; experiment: CellTiter-Glo (CTG) luminescent cell viability assay, NCI H2342; type: cell-based, Human; conditions: NCI H2342, 48 hours of treatment
Method: (§1) Luciferase luminescence were recorded for each well.

HT-29 (colon cancer) = experiment: CellTiter-Glo (CTG) luminescent cell viability assay, HT-29; type: cell-based, Human; conditions: HT-29, 48 hours
Method: as §1

AML12 liver cells = experiment: Toxicity on AML12 non-cancerous liver cells; type: cell-based; conditions: all doses studied (16 nM to 128 nM), 48 hours
Source text: (§2) Methodologies used for cell line AML12 (non-cancerous liver cells) and CCD841 (non-cancerous colon epithelial cells) are similar to the methods used for cancer cells.

[2] = test system: CCD841 colon epithelium cells; experiment: Toxicity on CCD841 non-cancerous colon epithelial cells; type: cell-based; conditions: all concentrations tested (16 nM, 32 nM, 64 nM, 128 nM), 48 hours
Source text: as §2

| SMILES | potency (cytotoxic activity, dose response) compared among test articles and pemetrexed ([1]; listed as free L gamma G6) | potency (cytotoxic activity, dose response) compared among test articles and pemetrexed ([1]; listed as free pemetrexed gG6) | potency (cytotoxic activity, dose response) compared among test articles and pemetrexed (HT-29 (colon cancer); listed as free L gamma G6) | potency (cytotoxic activity, dose response) compared among test articles and pemetrexed (HT-29 (colon cancer); listed as free pemetrexed gG6) | reduction in the AML12 liver cell counts (AML12 liver cells) | decrease in the number of CCD841 colon epithelium cells [2] [%] |
| --- | --- | --- | --- | --- | --- | --- |
| Nc1nc2[nH]cc(CCc3ccc(C(=O)N[C@@H](CCC(=O)N[C@@H](CCC(=O)N[C@@H](CCC(=O)N[C@@H](CCC(=O)N[C@@H](CCC(=O)N[C@@H](CCC(=O)O)C(=O)O)C(=O)O)C(=O)O)C(=O)O)C(=O)O)C(=O)O)cc3)c2c(=O)[nH]1 [gG6, free pemetrexed L-gamma hexaglutamate] | lowest potency | least potent | lowest potency | least potent | – | – |
| Nc1nc2[nH]cc(CCc3ccc(C(=O)N[C@@H](CCC(=O)O)C(=O)O)cc3)c2c(=O)[nH]1 [pemetrexed] | – | – | – | – | approximately 40% | ≥ 50 |
